{
  "source": "patent US20210085798A1",
  "about": "“IMMUNITY LINKER MOLECULES AND THEIR USE IN THE TREATMENT OF INFECTIOUS DISEASES” (CENTAURI THERAPEUTICS LIMITED, priority 2018, published 2021)",
  "key": {"[1]": {"tested_on": "P. aeruginosa (ATCC 27853)", "assay": "Flow cytometric antibody recruitment assay using anti-Gal IgM antibody M86, P. aeruginosa", "type": "cell-based", "details": "anti-Gal IgM M86 40 μg/mL, MFI (FITC) over vehicle control", "description": "Flow Cytometric Antibody Recruitment Assay Using an Anti-Galα1-3Galβ1-4GlcNAc (Anti-Gal) Antibody\nA secondary fluorescently labelled anti-IgM antibody was used to detect the anti-Gal antibody binding.\nThe assays were carried out in polystyrene 96-well U bottom plates (Costar). Frozen stocks of P. aeruginosa (American Type Culture Collection, ATCC 27853) in mid-exponential phase were thawed, centrifuged and resuspended in LB broth, Miller (Fisher BP1426-500) at OD595=0.2. The bacteria were grown to mid-exponential phase (OD595=0.4), washed once with Hank's Balanced Salt Solution with calcium and magnesium (HBSS+/+) and then resuspended in HBSS+/+ at a bacterial OD595=0.6. […] After three final washes with 200 μL HBSS+/+, the bacteria were resuspended in 200 μL HBSS+/+ and evaluated for anti-Gal antibody binding on a Cytoflex flow cytometer (Beckman Coulter). 50,000 counts of bacterial particles were sampled and the median fluorescent shift was recorded in the FITC-A channel. Data from all samples were analysed using Kaluza software (Beckman Coulter). […] The fold shift over background was calculated by dividing the Median Fluorescent Intensity (MFI) obtained in the presence of 20 μM of the Example compounds by the MFI value obtained in the vehicle controls, i.e., the absence of Examples. […] The shift in fluorescence intensity (FITC) occurs due to the binding event at each end of the molecule."}, "E. coli K12 (NCTC 10538)": {"tested_on": "E. coli K12 (NCTC 10538)", "type": "cell-based", "details": "40 μM Polymyxin B, anti-Gal IgM M86 25 μg/mL, MFI (FITC) over vehicle control", "description": "The assays were carried out in polystyrene 96-well U bottom plates (Costar). […] The samples were incubated for 1 hour at room temperature shaking at 450 rpm. […] Data from all samples were analysed using Kaluza software (Beckman Coulter)."}},
  "data": [
    {"substance": "Polymyxin B", "values": [
      {"measurement": "IgM Recruitment (20 μM, Average fold change)", "setting": "[1]", "value": 1, "unit": "fold change"},
      {"measurement": "IgM Recruitment (Average fold change)", "setting": "E. coli K12 (NCTC 10538)", "value": 4, "unit": "fold change"}
    ]}
  ]
}
